Here are results for ten cell lines from the supplement of paper PMC10307832.

Common to all, as to assay: relative viability (nuclei count vs DMSO), 5 days (fraction); higher = more cells survive
Compound in the experiment “Sulindac + Navitoclax”: CC1=C(CC(=O)O)c2cc(F)ccc2/C1=C\c1ccc([S+](C)[O-])cc1 [Sulindac] + CC1(C)CCC(c2ccc(Cl)cc2)=C(CN2CCN(c3ccc(C(=O)NS(=O)(=O)c4ccc(N[C@H](CCN5CCOCC5)CSc5ccccc5)c(S(=O)(=O)C(F)(F)F)c4)cc3)CC2)C1 [Navitoclax] (partner 0.5 µM)
An outline of the steps:
(§1)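 A single step with final 0.05% Triton X-100, 1% formaldehyde and 1 ug/ml Hoechst fixed the cells and stained nuclei 5 days after treatment. Lung cancer cell lines in 1536-well plates had been treated by pin tool the day after seeding with one drug alone or a fixed anchor-drug dose plus five library-drug doses (not always all listed) in √10 steps, and nuclei were counted on 4× images. Relative viability is the ratio of nuclei in treated wells to nuclei in vehicle wells, taken as the median of duplicate plates.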

Compound in experiment [1]: O=c1[nH]cc(F)c(=O)[nH]1 [5-Fluorouracil] + Cc1nc(Nc2ncc(C(=O)Nc3c(C)cccc3Cl)s2)cc(N2CCN(CCO)CC2)n1 [Dasatinib] (partner 0.075 µM)
An outline of the steps:
as §1

Compound in the experiment “Sulindac + Lapatinib”: CC1=C(CC(=O)O)c2cc(F)ccc2/C1=C\c1ccc([S+](C)[O-])cc1 [Sulindac] + CS(=O)(=O)CCNCc1ccc(-c2ccc3ncnc(Nc4ccc(OCc5cccc(F)c5)c(Cl)c4)c3c2)o1 [Lapatinib] (partner 2 µM)
The essentials: as §1

Compound in experiment [2]: CN[C@@H]1C[C@H]2O[C@@](C)([C@@H]1OC)n1c3ccccc3c3c4c(c5c6ccccc6n2c5c31)C(=O)NC4 [Staurosporine] + O=C(CCCCCCC(=O)Nc1ccccc1)NO [Vorinostat] (partner 1 µM)
An outline of the steps:
as §1

For 201T, the relative viability in the experiment with Sulindac + Navitoclax (first compound 0.08 µM) came to 1.19; with Sulindac + Navitoclax (first compound 0.253 µM), 1.15; with Sulindac + Navitoclax (first compound 0.8 µM) it was 1.27; in the experiment with Sulindac + Navitoclax (first compound 2.53 µM), 1.16; with Sulindac + Navitoclax (first compound 8 µM), 1.23; in experiment [1] (first compound 0.02 µM), 0.592. In addition, the relative viability was determined as 0.555 in experiment [1] (first compound 0.2 µM); 0.348 in experiment [1] (first compound 0.6325 µM); 0.284 in experiment [1] (first compound 2 µM); 1.05 with Sulindac + Lapatinib (first compound 0.08 µM); 0.974 with Sulindac + Lapatinib (first compound 0.253 µM); 1.04 in the experiment with Sulindac + Lapatinib (first compound 0.8 µM). Moreover, the relative viability is 0.997 in the experiment with Sulindac + Lapatinib (first compound 2.53 µM); 1.07 with Sulindac + Lapatinib (first compound 8 µM); 0.935 in experiment [2] (first compound 0.005 µM); 0.699 in experiment [2] (first compound 0.05 µM); 0.354 in experiment [2] (first compound 0.1581 µM); 0.245 in experiment [2] (first compound 0.5 µM).

For the cell line A549, the relative viability stood at 1.63 in the experiment with Sulindac + Navitoclax (first compound 0.08 µM); 1.29 with Sulindac + Navitoclax (first compound 0.253 µM); 1.21 with Sulindac + Navitoclax (first compound 2.53 µM); 1.46 with Sulindac + Navitoclax (first compound 8 µM); 1.12 with Sulindac + Lapatinib (first compound 0.08 µM); 0.975 in the experiment with Sulindac + Lapatinib (first compound 0.253 µM). The relative viability in the experiment with Sulindac + Lapatinib (first compound 0.8 µM) was found to be 0.995; in the experiment with Sulindac + Lapatinib (first compound 2.53 µM), 1.04; in the experiment with Sulindac + Lapatinib (first compound 8 µM), 1.22.

For the cell line A-427, the relative viability in the experiment with Sulindac + Navitoclax (first compound 0.08 µM) was 1.07; with Sulindac + Navitoclax (first compound 0.253 µM), 0.94; with Sulindac + Navitoclax (first compound 0.8 µM), 0.985; with Sulindac + Navitoclax (first compound 2.53 µM), 0.926; in the experiment with Sulindac + Navitoclax (first compound 8 µM), 1.04; in experiment [1] (first compound 0.02 µM), 0.562. In addition, the relative viability in experiment [1] (first compound 0.2 µM) turned out to be 0.764; in experiment [1] (first compound 0.6325 µM), 0.618; in experiment [1] (first compound 2 µM), 0.353; with Sulindac + Lapatinib (first compound 0.08 µM), 1.23; with Sulindac + Lapatinib (first compound 0.253 µM), 1.02; in the experiment with Sulindac + Lapatinib (first compound 0.8 µM) it was 1.07. The relative viability in the experiment with Sulindac + Lapatinib (first compound 2.53 µM) was 1.05; with Sulindac + Lapatinib (first compound 8 µM), 1.1; in experiment [2] (first compound 0.005 µM) it was 0.572; in experiment [2] (first compound 0.01581 µM), 0.333; in experiment [2] (first compound 0.05 µM), 0.43; in experiment [2] (first compound 0.1581 µM), 0.161. Besides, in experiment [2] (first compound 0.5 µM), the relative viability was 0.152.

ABC-1: the relative viability in experiment [1] (first compound 0.02 µM) amounted to 0.561; in experiment [1] (first compound 0.2 µM) it was 0.662; in experiment [1] (first compound 0.6325 µM) it was 0.576; in experiment [1] (first compound 2 µM), 0.558; in the experiment with Sulindac + Lapatinib (first compound 0.253 µM), 1.23; with Sulindac + Lapatinib (first compound 0.8 µM), 1.13. Moreover, the relative viability was 1.28 with Sulindac + Lapatinib (first compound 2.53 µM); 1.24 with Sulindac + Lapatinib (first compound 8 µM); 0.667 in experiment [2] (first compound 0.005 µM); 0.411 in experiment [2] (first compound 0.01581 µM); 0.454 in experiment [2] (first compound 0.05 µM); 0.147 in experiment [2] (first compound 0.1581 µM). Besides, in experiment [2] (first compound 0.5 µM), the relative viability came out at 0.117.

As for Calu-6, the relative viability with Sulindac + Navitoclax (first compound 0.08 µM) was found to be 1.1; with Sulindac + Navitoclax (first compound 0.253 µM) it was 1.04; with Sulindac + Navitoclax (first compound 0.8 µM) it was 0.627; in the experiment with Sulindac + Navitoclax (first compound 2.53 µM), 0.756; with Sulindac + Navitoclax (first compound 8 µM), 1.21; in the experiment with Sulindac + Lapatinib (first compound 0.08 µM) it was 1.29. The relative viability is 1.04 with Sulindac + Lapatinib (first compound 0.253 µM), 1.09 with Sulindac + Lapatinib (first compound 0.8 µM), 1.25 in the experiment with Sulindac + Lapatinib (first compound 2.53 µM) and 1.3 with Sulindac + Lapatinib (first compound 8 µM).

Consider ChaGo-K-1, for which the relative viability in the experiment with Sulindac + Navitoclax (first compound 0.08 µM) amounted to 1.01; with Sulindac + Navitoclax (first compound 0.253 µM) it was 0.925; in the experiment with Sulindac + Navitoclax (first compound 0.8 µM), 1.21; in the experiment with Sulindac + Navitoclax (first compound 2.53 µM), 0.897; with Sulindac + Navitoclax (first compound 8 µM) it was 1.56; in experiment [1] (first compound 0.02 µM), 0.558. For the same cell line, the relative viability in experiment [1] (first compound 0.2 µM) turned out to be 0.595; in experiment [1] (first compound 0.6325 µM), 0.386; in experiment [1] (first compound 2 µM), 0.39; in experiment [2] (first compound 0.005 µM), 0.791; in experiment [2] (first compound 0.05 µM), 0.359; in experiment [2] (first compound 0.1581 µM) it was 0.147. In experiment [2] (first compound 0.5 µM), the relative viability came out at 0.144.

On to EBC-1, for which the relative viability with Sulindac + Navitoclax (first compound 0.08 µM) is 0.377; with Sulindac + Navitoclax (first compound 0.253 µM) it was 0.387; in the experiment with Sulindac + Navitoclax (first compound 0.8 µM) it was 0.36; in the experiment with Sulindac + Navitoclax (first compound 2.53 µM), 0.344; with Sulindac + Navitoclax (first compound 8 µM), 0.431; with Sulindac + Lapatinib (first compound 0.08 µM), 0.213. The relative viability was 0.211 with Sulindac + Lapatinib (first compound 0.253 µM), 0.237 with Sulindac + Lapatinib (first compound 2.53 µM) and 0.218 with Sulindac + Lapatinib (first compound 8 µM).

On to EKVX, for which the relative viability in the experiment with Sulindac + Navitoclax (first compound 0.08 µM) was determined as 0.976; in the experiment with Sulindac + Navitoclax (first compound 0.253 µM) it was 0.969; in the experiment with Sulindac + Navitoclax (first compound 0.8 µM), 0.889; in the experiment with Sulindac + Navitoclax (first compound 2.53 µM), 1.04; in the experiment with Sulindac + Navitoclax (first compound 8 µM), 1.07; with Sulindac + Lapatinib (first compound 0.08 µM), 0.193. Moreover, the relative viability is 0.186 in the experiment with Sulindac + Lapatinib (first compound 0.253 µM); 0.21 with Sulindac + Lapatinib (first compound 0.8 µM); 0.18 with Sulindac + Lapatinib (first compound 2.53 µM); 0.111 with Sulindac + Lapatinib (first compound 8 µM); 0.597 in experiment [2] (first compound 0.005 µM); 0.236 in experiment [2] (first compound 0.01581 µM). For the same cell line, the relative viability in experiment [2] (first compound 0.05 µM) came to 0.19; in experiment [2] (first compound 0.1581 µM), 0.248; in experiment [2] (first compound 0.5 µM) it was 0.181.

Turning to HCC-44, the relative viability in the experiment with Sulindac + Navitoclax (first compound 0.08 µM) was determined as 1.21; with Sulindac + Navitoclax (first compound 0.253 µM), 1.08; with Sulindac + Navitoclax (first compound 0.8 µM), 0.904; with Sulindac + Navitoclax (first compound 2.53 µM), 1.15; with Sulindac + Navitoclax (first compound 8 µM), 1.02; in the experiment with Sulindac + Lapatinib (first compound 0.08 µM), 1.14. In addition, the relative viability in the experiment with Sulindac + Lapatinib (first compound 0.253 µM) was 1.05; with Sulindac + Lapatinib (first compound 0.8 µM), 0.919; in the experiment with Sulindac + Lapatinib (first compound 2.53 µM), 1.05; with Sulindac + Lapatinib (first compound 8 µM), 1.15; in experiment [2] (first compound 0.005 µM) it was 1.1; in experiment [2] (first compound 0.05 µM), 0.517. The relative viability in experiment [2] (first compound 0.1581 µM) was determined as 0.27; in experiment [2] (first compound 0.5 µM), 0.2.

Regarding IA-LM, the relative viability is 0.696 with Sulindac + Navitoclax (first compound 0.08 µM); 0.863 with Sulindac + Navitoclax (first compound 0.253 µM); 0.81 in the experiment with Sulindac + Navitoclax (first compound 2.53 µM); 0.79 with Sulindac + Navitoclax (first compound 8 µM); 0.724 in the experiment with Sulindac + Lapatinib (first compound 0.08 µM); 0.8 with Sulindac + Lapatinib (first compound 0.253 µM). Besides, the relative viability worked out at 0.68 in the experiment with Sulindac + Lapatinib (first compound 0.8 µM); 0.782 in the experiment with Sulindac + Lapatinib (first compound 2.53 µM); 0.798 with Sulindac + Lapatinib (first compound 8 µM); 0.732 in experiment [2] (first compound 0.005 µM); 0.312 in experiment [2] (first compound 0.01581 µM); 0.0781 in experiment [2] (first compound 0.05 µM). In addition, the relative viability in experiment [2] (first compound 0.1581 µM) worked out at 0.0987; in experiment [2] (first compound 0.5 µM), 0.105.
